Literature values as cited in patent US20250073243A1, “LOW BACK PAIN TREATMENT” (Persica Pharmaceuticals Ltd., priority 2021, published 2025).
In brackets after ≈: the same amount, converted by molar mass.

How the values were obtained:
[1] = oral administration; patients with chronic LBP

Row | Compound | improvement in outcome measures [1] | Cmax observed for a standard linezolid dose (standard 600 mg linezolid dose) | half-life of standard linezolid administration (standard linezolid administration) [h] | minimum inhibitory concentration (MIC) (Gram-positive bacteria) [mg/L]
1 | amoxicillin-clavulanate | clinically important and statistically significant (p<0.001) improvement in all outcome measures |  |  | 
2 | CC(=O)NC[C@H]1CN(c2ccc(N3CCOCC3)c(F)c2)C(=O)O1 [linezolid, (S)—N-((3-(3-fluoro-4-morpholinophenyl)-2-oxooxazolidin-5-yl)methyl) acetamide] |  | approximately 15 μg/ml | 4 to 5 | 1 (≈ 2.96 µM)
